18 compounds from patent US20240262795A1, “PYRAZINE COMPOUNDS AS INHIBITORS OF FLT3” (Biomea Fusion, Inc., priority 2021, published 2024) can be followed below.

Structures are written as SMILES.

Type in all cases: cell-based, human
For one experiment, the system named is MV-4-11. In words: Proliferation inhibition, CellTiter-Glo, MV-4-11. Conditions: Homo sapiens, MV4-11, 96 h; MV-4:11 cells, IC50 (4 days), CellTiter-Glo; read-out: MV-4:11 IC50. An excerpt:
(§1) The proliferation inhibitory effect was investigated in human AML cell lines MOLM-13 (AddexBio: C0003003) and MV-4-11 (ATCC: CRL-9591), and CML cell line […] (ATCC: CRL-3343). Molm-13 is heterozygous for FLT3-ITD mutation, while MV4-11 is homozygous for FLT3-ITD (Quentmeier H, et al., Leukemia. 17(1):120-4). […] Cells were maintained in RPMI-1640 medium (ThermoFisher catalog no. 61870036) supplemented with 10% of Heat Inactivated FBS (ThermoFisher catalog no. A31605) and 1% Pen-Strep (ThermoFisher catalog no. 10378016) and cultured at 37° C. in a humidified incubator with 5% CO2. Cell lines were grown by […], and the cells were maintained in a range 70%-80% confluency.
(§2) ATP is present in all metabolically active cells and is considered as a marker for cell viability and proliferation. Metabolic cell activity was determined using the CellTiter-Glo kit (Promega catalog no. G7572), an ATP monitoring system based on the production of luminescence by the reaction of ATP with added UltraGlo® recombinant luciferase (Kawano et al., 2016, PLOS One, 8; 11(7):e0158888), according to the supplier's experimental recommendations. The assay was based on a 96 well plate format.
(§3) Test compounds were dissolved at 10 mM in DMSO (Sigma catalog no. D8418; purity≥99.9%) and stored at −20° C. Eight concentrations of test compound were assessed in duplicate in an individual test occasion in parallel in the selected cell lines. Gilteratinib and FF-10101 were used as reference compounds and tested in duplicate at eight concentrations. 100% of proliferation is represented by the untreated cells (0.2% DMSO).
(§4) On the day of the experiment, cells were quantified with the cell viability analyzer NucleoCounter (Chemometec NC-200) and diluted with fresh medium to obtain the cell density of about 10,000 cells per 200 μL medium. 200 μL of cell suspension were added into wells in the 96 well plate.
(§5) After 2 hours from seeding cells, compounds at desired concentrations were added using a D300e compound dispenser (Life Sciences Tecan D300) with shaking between each compound dispensed. Assay plates were incubated at 37° C. in a humidified incubator with 5% CO2.
(§6) On day 4 (˜96 hrs after compound addition) assay plates were equilibrated at room temperature for approximately 15 min, and then 40 μL/well of the Promega CellTiterGlo® reagent was added. Contents were mixed for 5 min on an orbital shaker to promote cell lysis, and then incubated at room temperature for an additional 10 min in the dark to stabilize the luminescent signal. Luminescence was read by using a GloMlax GM300 plate reader (Promega) using the luminescence for 96 well plate standard protocol.
(§7) Results were analyzed by GraphPad (Prism) and IC50 values were calculated by non-linear regression using four parameter-logistic equation.
(In general: Cellular ATP, detected with luciferase, serves as a proxy for viable cell number.)

A further experiment has as its system K-562. Put plainly: Proliferation inhibition, CellTiter-Glo, K-562. Conditions: Homo sapiens, K562, 96 h; K-562 cells, IC50 (4 days), CellTiter-Glo; read-out: K-562 IC50.
Excerpt: as §1, §2, §3, §4, §5, §6, §7

A further experiment concerns MOLM-13. Put plainly: Proliferation inhibition, CellTiter-Glo, MOLM-13. The conditions noted are these: Homo sapiens, 96 h; MOLM-13 cells, IC50 (4 days), CellTiter-Glo; read-out: MOLM-13 IC50.
Excerpt: as §1, §2, §3, §4, §5, §6, §7

Usually IC50 stands for the point on the concentration scale where inhibition reaches its midpoint. Turning to `CCc1nc(C(N)=O)c(Nc2cccc(CCNC(=O)[C@H](C)N(C)C(=O)/C=C/CN(C)C)c2)nc1C` [Compound 142A, (S,E)-3-((3-(2-(2-(4-(dimethylamino)-N-methylbut-2-enamido)propanamido)ethyl)phenyl)amino)-6-ethyl-5-methylpyrazine-2-carboxamide], the values for the IC50 with MV-4-11, in the experiment on K-562 and with MOLM-13 were 1 to 10 nM, over 500 nM and 1 to 10 nM, respectively.
For `CC#CC(=O)N(C)[C@@H](C)C(=O)NCCc1cccc(Nc2nc(N(C)C)c(CC)nc2C(N)=O)c1` [Compound 160, 3-[3-[2-[[(2S)-2-[but-2-ynoyl(methyl)amino]propanoyl]amino]ethyl]anilino]-5-(dimethylamino)-6-ethyl-pyrazine-2-carboxamide], the IC50 with MV-4-11 was 1 to 10 nM; in the experiment with K-562, over 500 nM; in the experiment on MOLM-13, 10 to 100 nM.
For `CCc1nc(C(N)=O)c(Nc2cccc(CCNC(=O)[C@H](C)N(C)C(=O)/C(F)=C/CN(C)C)c2)nc1N(C)C` [Compound 162, (S,Z)-5-(dimethylamino)-3-((3-(2-(2-(4-(dimethylamino)-2-fluoro-N-methylbut-2-enamido)propanamido)ethyl)phenyl)amino)-6-ethylpyrazine-2-carboxamide], in that order: 10 to 100 nM, over 500 nM and 100 to 500 nM.
For the compound `CCc1nc(C(N)=O)c(Nc2cc(F)cc(CCNC(=O)[C@H](C)N(C)C(=O)/C=C/CN(C)C)c2)nc1C` [Compound 163, 3-[3-[2-[[(2S)-2-[[(E)-4-(dimethylamino)but-2-enoyl]-methyl-amino]propanoyl]amino]ethyl]-5-fluoro-anilino]-6-ethyl-5-methyl-pyrazine-2-carboxamide], the IC50 in the experiment on MV-4-11 was 1 to 10 nM; with K-562, over 500 nM; in the experiment with MOLM-13, 1 to 10 nM.
As for `[2H]C([2H])([2H])N(C/C=C/C(=O)N(C)[C@@H](C)C(=O)NCCc1cccc(Nc2nc(C)c(CC)nc2C(N)=O)c1)C([2H])([2H])[2H]` [Compound 164, 3-[3-[2-[[(2S)-2-[[(E)-4-[bis(trideuteriomethyl)amino]but-2-enoyl]-methyl-amino]propanoyl]amino]ethyl]anilino]-6-ethyl-5-methyl-pyrazine-2-carboxamide], the IC50 in the experiment with MV-4-11 is 1 to 10 nM; with K-562 it was over 500 nM; with MOLM-13, 10 to 100 nM.
As for `CCc1nc(C(N)=O)c(Nc2cccc(CCNC(=O)[C@H](C)N(C)C(=O)/C=C/CN3CCC3)c2)nc1C` [Compound 202, (S,E)-3-((3-(2-(2-(4-(azetidin-1-yl)-N-methylbut-2-enamido)propanamido)ethyl)phenyl)amino)-6-ethyl-5-methylpyrazine-2-carboxamide], the results for the IC50 in the experiment with MV-4-11, in the experiment with K-562 and with MOLM-13 were 1 to 10 nM, over 500 nM and 1 to 10 nM, respectively.
In the case of `Cc1nc(Nc2cccc(CCNC(=O)[C@H](C)N(C)C(=O)/C=C/CN(C)C)c2)c(C(N)=O)nc1C` [Compound 207, 3-[3-[2-[[(2S)-2-[[(E)-4-(dimethylamino)but-2-enoyl]-methyl-amino]propanoyl]amino]ethyl]anilino]-5,6-dimethyl-pyrazine-2-carboxamide], the values for the IC50 in the experiment on MV-4-11, in the experiment on K-562 and in the experiment with MOLM-13 were 10 to 100 nM, over 500 nM and 10 to 100 nM, respectively.
`C=CC(=O)N(C)[C@@H](C)C(=O)NCCc1cccc(Nc2nc(C3CC3)c(CC)nc2C(N)=O)c1` [Compound 208, 5-cyclopropyl-6-ethyl-3-[3-[2-[[(2S)-2-[methyl(prop-2-enoyl)amino]propanoyl]amino]ethyl]anilino]pyrazine-2-carboxamide]: the IC50 with MV-4-11 was 1 to 10 nM; in the experiment on K-562, over 500 nM; with MOLM-13, 10 to 100 nM.
Consider `CC#CC(=O)N(C)[C@@H](C)C(=O)NCCc1cccc(Nc2nc(C3CC3)c(CC)nc2C(N)=O)c1` [Compound 209, 3-[3-[2-[[(2S)-2-[but-2-ynoyl(methyl)amino]propanoyl]amino]ethyl]anilino]-5-cyclopropyl-6-ethyl-pyrazine-2-carboxamide], for which the values for the IC50 with MV-4-11, with K-562 and in the experiment on MOLM-13 were 1 to 10 nM, over 500 nM and 10 to 100 nM, respectively.
As for `Cc1nc(C(N)=O)c(Nc2cccc(CCNC(=O)C(C)N(C)C(=O)/C=C/CN(C)C)c2)nc1C1CC1` (stereo not drawn) [Compound 211, 5-cyclopropyl-3-[3-[2-[2-[[(E)-4-(dimethylamino)but-2-enoyl]-methyl-amino]propanoylamino]ethyl]anilino]-6-methyl-pyrazine-2-carboxamide], the IC50 with MV-4-11 was 1 to 10 nM; with K-562 it was over 500 nM; in the experiment on MOLM-13, 10 to 100 nM.
In the same order, the values of `Cc1nc(Nc2cccc(CCNC(=O)[C@H](C)N(C)C(=O)/C=C/CN3CCC3)c2)c(C(N)=O)nc1C` [Compound 214, 3-[3-[2-[[(2S)-2-[[(E)-4-(azetidin-1-yl)but-2-enoyl]-methyl-amino]propanoyl]amino]ethyl]anilino]-5,6-dimethyl-pyrazine-2-carboxamide] are 10 to 100 nM, over 500 nM and 10 to 100 nM.
Turning to `C=C(F)C(=O)N(C)[C@@H](C)C(=O)NCCc1cccc(Nc2nc(C3CC3)c(CC)nc2C(N)=O)c1` [Compound 215, 5-cyclopropyl-6-ethyl-3-[3-[2-[[(2S)-2-[2-fluoroprop-2-enoyl(methyl)amino]propanoyl]amino]ethyl]anilino]pyrazine-2-carboxamide], the IC50 with MV-4-11, with K-562 and with MOLM-13 was over 500 nM throughout.
As for `C=CC(=O)N(C)[C@@H](C)C(=O)NCCc1cccc(Nc2nc(C)c(CC)nc2C(N)=O)c1` [Compound 216, 6-ethyl-5-methyl-3-[3-[2-[[(2S)-2-[methyl(prop-2-enoyl)amino]propanoyl]amino]ethyl]anilino]pyrazine-2-carboxamide], the IC50 was 10 to 100 nM with MV-4-11, over 500 nM in the experiment on K-562 and 10 to 100 nM in the experiment on MOLM-13.
Regarding `CC#CC(=O)N(C)[C@@H](C)C(=O)NCCc1cccc(Nc2nc(N(C)C)c(C)nc2C(N)=O)c1` [Compound 217, 3-[3-[2-[[(2S)-2-[but-2-ynoyl(methyl)amino]propanoyl]amino]ethyl]anilino]-5-(dimethylamino)-6-methyl-pyrazine-2-carboxamide], the IC50 was 10 to 100 nM with MV-4-11, over 500 nM with K-562 and 10 to 100 nM with MOLM-13.
In the case of `C=CC(=O)N(C)[C@@H](C)C(=O)NCCc1cccc(Nc2nc(N(C)C)c(C)nc2C(N)=O)c1` [Compound 218, 5-(dimethylamino)-6-methyl-3-[3-[2-[[(2S)-2-[methyl(prop-2-enoyl)amino]propanoyl]amino]ethyl]anilino]pyrazine-2-carboxamide], the IC50 with MV-4-11 is 1 to 10 nM; in the experiment with K-562 it was over 500 nM; in the experiment with MOLM-13 it was 10 to 100 nM.
With `CCc1nc(C(N)=O)c(Nc2cccc(CCNC(=O)C3(N(C)C(=O)/C=C/CN(C)C)CC3)c2)nc1C1CC1` [Compound 220, 5-cyclopropyl-3-[3-[2-[[1-[[(E)-4-(dimethylamino)but-2-enoyl]-methyl-amino]cyclopropanecarbonyl]amino]ethyl]anilino]-6-ethyl-pyrazine-2-carboxamide], the values for the IC50 with MV-4-11, in the experiment on K-562 and in the experiment with MOLM-13 were 1 to 10 nM, over 500 nM and 10 to 100 nM, respectively.
As to `Cc1cc(C(N)=O)c(Nc2cncc(CCNC(=O)[C@H](C)N(C)C(=O)/C=C/CN(C)C)c2)nc1C1CC1` [Compound 323, (S,E)-6-cyclopropyl-2-((5-(2-(2-(4-(dimethylamino)-N-methylbut-2 enamido)propanamido)ethyl)pyridin-3-yl)amino)-5-methylnicotinamide], the values for the IC50 in the experiment with MV-4-11 and in the experiment with MOLM-13 were 10 to 100 nM and 100 to 500 nM, respectively.
In the case of `[2H]C([2H])([2H])N(C/C=C/C(=O)N(C)[C@@H](C)C(=O)NCCc1cccc(Nc2nc(NC(C)C)c(CC)nc2C(N)=O)c1)C([2H])([2H])[2H]` [Compound 505, (S,E)-3-((3-(2-(2-(4-(bis(methyl-d3)amino)-N-methylbut-2-enamido)propanamido)ethyl)phenyl)amino)-6-ethyl-5-(isopropylamino)pyrazine-2-carboxamide], the IC50 in the experiment on K-562 is over 500 nM.
